US20230355612A1 (SHANGHAI BOCIMED PHARMACEUTICAL CO., LTD., priority 2020, published 2023)
Converted amounts (≈) assume the structure as drawn. Where a name gives a salt, the structure may show the parent alone. Read-outs that look alike come from different tables or passages of the source.

Key:
physchem = details: for solubility at 24 h: 37 °C, thermodynamic from solid
Method: The mixtures were shaken at 37° C. for 24 h and filtered through 0.45 μm aqueous-phase filter membranes. The filtrates were collected and the solubility was determined by high performance liquid chromatography. pH3, pH4, pH5 and pH6 represent acetate buffer solutions, and pH7, pH7.4, pH8 and pH9 represent phosphate buffer solutions.

[1] = In vitro dissolution simulation experiment, phosphate buffer pH 7.4; format: physicochemical; details: pH 7.4 phosphate buffer, 37° C.
Method: The mixtures were shaken at 37° C.

[2] = Related substances stability of solids under stress conditions (HPLC); format: physicochemical; details: for Total related substances: left to stand under these conditions for 10 days
Method: (§1) Unless otherwise indicated, the starting materials and reagents in the examples below are either commercially available or prepared by one skilled in the art according to methods known in the art. The salt compounds of the examples were tested by nuclear magnetic resonance (^1H-NMR), X-ray powder diffraction (XRPD), differential scanning calorimetry (DSC), thermogravimetric analysis (TGA), hot-stage polarized light microscopy (PLM) and high performance liquid chromatography (HPLC), and the test parameters are as follows: • (1) The ^1H-NMR measurements were taken on a Bruker Advance III500M nuclear magnetic resonance spectrometer at a frequency of […] with deuterated DMSO as the solvent. • (2) The DSC measurements were taken on a sealed pan device in TA Instruments model Q2000: samples (about 1-2 mg) were weighed in aluminum pans and transferred to the instrument for measurement. The test parameters are as follows: the instrument was equilibrated at 30° C. and heated to 300° C. at a rate of 10° C./min, data was collected, and the experiments were conducted in a nitrogen atmosphere. • (3) The TGA measurements were taken on a TA Instruments model Q500 device: samples (about 2-5 mg) were weighed in aluminum pans and transferred to the instrument for measurement. The test parameters are as follows: the instrument was heated to 350° C. at a rate of 10° C./min, data was collected, and the experiments were conducted in a nitrogen atmosphere. • (4) The XRPD measurements were taken on a Bruker model D8 Advance X-ray powder diffractometer using a round zero background single crystal silicon sample stage. The scan parameters are as follows: voltage, 40 kv; current, 40 mA; scan range, 3-45°; scan increment, 0.02°; scan mode, continuous scan. • (5) The PLM analyses were performed under a model DYP990/TPH350 hot stage polarizing microscope from Shanghai Dian Ying Optical Instruments: a small amount of sample was dispersed in a glass slide and photographed using an eyepiece lens at a magnification of 10× and an objective lens at a magnification of 5-40×. • (6) Methods of measuring HPLC content and detecting related substances: […]

[3] = Pharmacokinetic experiment in rats (plasma cariprazine, LC-MS/MS); format: in vivo, SD rats
[4] = Crystalline form stability of solids under stress conditions (XRPD); format: physicochemical
Method: as §1

[5] = left to stand under these conditions for 10 days

Row | Compound | Concentration ([1]; 1 (h)) [µg/mL] | Concentration ([1]; 3.5 (h)) [µg/mL] | Concentration ([1]; 5 (h)) [µg/mL] | Concentration ([1]; 7 (h)) [µg/mL] | Concentration ([1]; 24 (h)) [µg/mL] | Total related substances [2] | further results
1 | cariprazine succinate | – | – | – | – | – | – | Solubility (physchem): >261.2 µg/mL; Solubility (physchem; pH 3): >215.5 µg/mL; Solubility (physchem; pH 9): <215.5 µg/mL
2 | CN(C)C(=O)N[C@H]1CC[C@H](CCN2CCN(c3cccc(Cl)c3Cl)CC2)CC1 [Cariprazine] | – | – | – | – | – | – | solubility at 24 h (physchem; pH 8, aqueous buffer): 1 µg/mL (≈ 2.34 µM); solubility at 24 h (physchem; water): ~180 µg/mL (≈ 421 µM)
3 | CN(C)C(=O)N[C@H]1CC[C@H](CCN2CCN(c3cccc(Cl)c3Cl)CC2)CC1 [cariprazine hydrochloride] | – | – | – | – | – | – | solubility at 24 h (physchem; pH 3, aqueous buffer): 12300 µg/mL; solubility at 24 h (physchem; pH 4, aqueous buffer): 9770 µg/mL; solubility at 24 h (physchem; pH 5, aqueous buffer): 1080 µg/mL; solubility at 24 h (physchem; water): ~11000 µg/mL
4 | CN(C)C(=O)NC1CCC(CCN2CCN(c3cccc(Cl)c3Cl)CC2)CC1 (centres unmarked) [Crystalline form B of cariprazine embonate] | 5.3 | 4.0 | 5.2 | 2.2 | 1.7 | remained substantially unchanged | –
5 | cariprazine malate | – | – | – | – | – | – | Solubility (physchem): >1065.7 µg/mL; Solubility (physchem; pH 3): >266.4 µg/mL; Solubility (physchem; pH 5): >228.4 µg/mL; Solubility (physchem; pH 7): <304.5 µg/mL; Solubility (physchem; pH 9): <152.2 µg/mL
6 | CN(C)C(=O)NC1CCC(CCN2CCN(c3cccc(Cl)c3Cl)CC2)CC1 (centres unmarked) [Amorphous cariprazine embonate, cariprazine embonate] | 11.94 | 10.3 | 9.58 | 7.08 | 9.9 | – | Increase in impurities ([2]; high-temperature conditions): bigger increase in impurities
7 | CN(C)C(=O)NC1CCC(CCN2CCN(c3cccc(Cl)c3Cl)CC2)CC1 (centres unmarked) [Crystalline form G of cariprazine embonate] | 1.30 | 4.51 | 2.28 | 1.84 | 8.05 | remained substantially unchanged | –
8 | CN(C)C(=O)NC1CCC(CCN2CCN(c3cccc(Cl)c3Cl)CC2)CC1 (centres unmarked) [Crystalline form A of cariprazine embonate] | 1.0 | 3.4 | 4.1 | 3.9 | 2.5 | remained substantially unchanged | Length of release among the crystalline forms ([3]; rats, single intramuscular injection 9 mg/kg): best length of release; Crystalline form [4, 5]: its crystalline form did not change; Crystallinity [4, 5]: did not change significantly
9 | CN(C)C(=O)NC1CCC(CCN2CCN(c3cccc(Cl)c3Cl)CC2)CC1 (centres unmarked) [cariprazine embonate] | – | – | – | – | – | – | Absorption after oral administration ([3]; rat, in vivo, po, 0.3 mg/kg): fast absorption; Crystalline form ([4]; high-humidity conditions and accelerated conditions): change into crystalline form A of cariprazine embonate; Crystalline form ([4]; high-temperature conditions and illuminated conditions): its crystalline form did not change
